Assay in all cases: ≥ marks a high value that may be exact or a test limit, other limits are often not marked, values filed in µg/mL are converted to µM
Assay [1] concerns Candida albicans.
The subject of assay [2] is Pseudomonas aeruginosa M1426.
The test system of assay [3] is Pseudomonas aeruginosa M917.
The test system of assay [4] is Stenotrophomonas maltophilia.
The test system of assay [5] is Pseudomonas aeruginosa M1251.
For assay [6], the system named is Ralstonia pickettii.
Assay [7] deals with Achromobacter xylosoxidans.
Assay [8] relates to Pseudomonas aeruginosa M76.
The test system of assay [9] is Pseudomonas aeruginosa R70.
Assay [10] concerns Staphylococcus aureus.
Assay [11] deals with Pseudomonas aeruginosa PAO1.
In assay [12] the test system is Salmonella enterica serovar Typhimurium.
Assay [13] concerns Pseudomonas aeruginosa.
In assay [14] the test system is Pseudomonas fluorescens.
Assay [15] deals with Escherichia coli UB1005.
Assay [16] concerns Staphylococcus aureus ATCC 6538.
Assay [17] has as its system Pseudomonas aeruginosa ATCC 9027.
Assay [18] concerns Escherichia coli 55B5.
Assay [19] concerns Salmonella typhimurium.
The test system of assay [20] is Pseudomonas aeruginosa H187.
Assay [21] concerns Staphylococcus aureus ATCC 25923.
Assay [22] deals with Enterococcus faecalis C625.
The test system of assay [23] is Staphylococcus epidermidis C621.
The test system of assay [24] is Pseudomonas aeruginosa H188.
The test system of assay [25] is Salmonella typhimurium C587.
Assay [26] has as its system Salmonella typhimurium C610.
The test system of assay [27] is Escherichia coli DC2.
Assay [28] deals with Bacillus subtilis C971.
For assay [29], the system named is Corynebacterium xerosis C875.
Assay [30] concerns Staphylococcus aureus SAP 0017.
The test system of assay [31] is Escherichia coli KCCM 11569.
The test system of assay [32] is Bacillus subtilis KCCM 11495.

≈ marks a conversion by molar mass, not a printed value.

With `CC(C)C[C@H](NC(=O)[C@H](C)NC(=O)[C@H](CCCCN)NC(=O)[C@H](CCCCN)NC(=O)[C@H](CC(C)C)NC(=O)[C@H](C)NC(=O)[C@H](CCCCN)NC(=O)[C@H](CCCCN)NC(=O)[C@H](CC(C)C)NC(=O)[C@H](CCCCN)NC(=O)[C@H](CCCCN)NC(=O)[C@H](CC(C)C)NC(=O)[C@H](C)NC(=O)[C@H](CCCCN)NC(=O)[C@H](CC(C)C)NC(=O)[C@H](C)NC(=O)[C@@H](N)Cc1ccccc1)C(N)=O` [FALKALKKLKKALKKAL], the MIC in assay [1] was found to be 8.37 µM (≈ 16 µg/mL); in assay [2] it was 8.37 µM (≈ 16 µg/mL); in [3], 8.37 µM (≈ 16 µg/mL); in [4] it was 2.09 µM (≈ 4 µg/mL); in assay [5] it was 4.18 µM (≈ 8 µg/mL); in [6] it was 2.09 µM (≈ 4 µg/mL). For the same molecule, the minimum inhibitory concentration (MIC) in [7] is at least 66.9 µM; in assay [8], 8.37 µM (≈ 16 µg/mL); in assay [9] it was 2.09 µM (≈ 4 µg/mL); in [10], 4.18 µM (≈ 8 µg/mL); in assay [11] it was 4.18 µM (≈ 8 µg/mL); in [12] it was 4.18 µM (≈ 8 µg/mL). The MIC in [13] was found to be 4.18 µM (≈ 8 µg/mL); in [14], 2.09 µM (≈ 4 µg/mL); in assay [15] it was 2.09 µM (≈ 4 µg/mL).
With `CC(C)C[C@H](NC(=O)[C@H](CCCCN)NC(=O)[C@H](CCCCN)NC(=O)[C@H](C)NC(=O)[C@H](CC(C)C)NC(=O)[C@H](CCCCN)NC(=O)[C@H](CCCCN)NC(=O)[C@H](CC(C)C)NC(=O)[C@H](CCCCN)NC(=O)[C@H](CCCCN)NC(=O)[C@H](C)NC(=O)[C@H](CC(C)C)NC(=O)[C@H](CCCCN)NC(=O)[C@H](CCCCN)NC(=O)[C@H](C)NC(=O)[C@@H](N)Cc1ccccc1)C(=O)N[C@@H](C)C(=O)N[C@@H](CCCCN)C(=O)O` [FAKKLAKKLKKLAKKLAK], the minimal inhibitory concentration (MIC) in assay [1] is 15.6 µM (≈ 32 µg/mL); in assay [2] it was 3.89 µM (≈ 8 µg/mL); in assay [3], 15.6 µM (≈ 32 µg/mL); in assay [4], 0.486 µM (≈ 1 µg/mL); in assay [5], 3.89 µM (≈ 8 µg/mL); in assay [6] it was 1.95 µM (≈ 4 µg/mL). Also, the MIC was 3.89 µM (≈ 8 µg/mL) in [7]; 3.89 µM (≈ 8 µg/mL) in assay [8]; 0.973 µM (≈ 2 µg/mL) in [9]; above 62.3 µM in assay [10]; 7.3 µM (≈ 15 µg/mL) in assay [16]; 7.3 µM (≈ 15 µg/mL) in assay [17]. Also, the minimum inhibitory concentration (MIC) in assay [11] amounted to 3.89 µM (≈ 8 µg/mL); in assay [12], 3.89 µM (≈ 8 µg/mL); in [13] it was 7.78 µM (≈ 16 µg/mL); in [14] it was 3.89 µM (≈ 8 µg/mL); in [15], 0.973 µM (≈ 2 µg/mL).
On to `CC[C@H](C)[C@H](NC(=O)[C@H](C)N)C(=O)N[C@@H](Cc1cnc[nH]1)C(=O)N[C@@H](CCCCN)C(=O)N[C@@H](CC(C)C)C(=O)N[C@@H](C)C(=O)N[C@@H](Cc1cnc[nH]1)C(=O)N[C@@H](CCCCN)C(=O)N[C@@H](CC(C)C)C(=O)N[C@@H](CC(C)C)C(=O)N1CCC[C@H]1C(=O)N[C@@H](CCCCN)C(=O)N[C@H](C(=O)N[C@@H](CC(C)C)C(=O)N[C@@H](CCCN=C(N)N)C(=O)N[C@@H](C)C(=O)N[C@H](C(=O)N[C@@H](CCCCN)C(=O)N[C@@H](CCCCN)C(=O)N[C@@H](CC(C)C)C(=O)N[C@@H](C)C(=O)N[C@@H](CC(N)=O)C(=O)O)C(C)C)[C@@H](C)O` [AIHKLAHKLLPKTLRAVKKLAN], for which the MIC in [18] stood at 25 µM (≈ 61.6 µg/mL); in assay [13], 20.5 µM (≈ 50.5 µg/mL); in assay [15] it was 20.5 µM (≈ 50.5 µg/mL); in assay [19], 15.5 µM (≈ 38.2 µg/mL).
`CC[C@H](C)[C@H](NC(=O)[C@H](C)N)C(=O)N[C@@H](Cc1cnc[nH]1)C(=O)N[C@@H](CCCCN)C(=O)N[C@@H](CC(C)C)C(=O)N[C@@H](C)C(=O)N[C@@H](Cc1cnc[nH]1)C(=O)N[C@@H](CCCCN)C(=O)N[C@H](C(=O)N[C@@H](CC(C)C)C(=O)N[C@@H](CCCCN)C(=O)N[C@@H](CCCCN)C(=O)N[C@H](C(=O)N[C@@H](CC(C)C)C(=O)N[C@@H](CCCN=C(N)N)C(=O)N[C@@H](C)C(=O)N[C@H](C(=O)N[C@@H](CCCCN)C(=O)N[C@@H](CCCCN)C(=O)N[C@@H](CC(C)C)C(=O)N[C@@H](C)C(=O)N[C@@H](CC(N)=O)C(=O)O)C(C)C)[C@@H](C)O)[C@@H](C)O` [AIHKLAHKTLKKTLRAVKKLAN]: the MIC was found to be 14.5 µM (≈ 36 µg/mL) in [18], 12.5 µM (≈ 31 µg/mL) in assay [13], 15.5 µM (≈ 38.5 µg/mL) in assay [15] and 10.5 µM (≈ 26.1 µg/mL) in [19].
Take `CC[C@H](C)[C@H](NC(=O)[C@H](C)NC(=O)[C@H](CCCCN)NC(=O)[C@H](CC(C)C)NC(=O)[C@H](C)NC(=O)[C@@H](NC(=O)[C@H](Cc1cnc[nH]1)NC(=O)[C@H](CC(C)C)NC(=O)[C@@H](NC(=O)[C@@H](NC(=O)[C@H](CCCCN)NC(=O)CNC(=O)[C@H](C)NC(=O)[C@H](CO)NC(=O)[C@H](CCCCN)NC(=O)[C@H](Cc1ccccc1)NC(=O)[C@@H](NC(=O)[C@H](CCCCN)NC(=O)[C@H](CC(C)C)NC(=O)[C@H](Cc1ccccc1)NC(=O)[C@H](CO)NC(=O)[C@H](CCCCN)NC(=O)[C@H](Cc1c[nH]c2ccccc12)NC(=O)[C@H](CCCCN)NC(C)=O)[C@@H](C)O)[C@@H](C)O)C(C)C)[C@@H](C)O)C(=O)N[C@@H](CO)C(=O)N[C@@H](CO)C(N)=O` [KWKSFLKTFKSAGKTVLHTALKAISS]: the MIC in [20] is 2.22 µM (≈ 6.49 µg/mL); in assay [21], 8.82 µM (≈ 25.8 µg/mL); in assay [22] it was 17.6 µM (≈ 51.5 µg/mL); in assay [23] it was 1.11 µM (≈ 3.25 µg/mL); in [24], 3.51 µM (≈ 10.2 µg/mL); in [25], 1.74 µM (≈ 5.07 µg/mL). Besides, the MIC in assay [26] worked out at 0.869 µM (≈ 2.54 µg/mL); in [27], 0.869 µM (≈ 2.54 µg/mL); in assay [28] it was 0.695 µM (≈ 2.03 µg/mL); in assay [29], 0.695 µM (≈ 2.03 µg/mL); in assay [30], 3.51 µM (≈ 10.2 µg/mL); in assay [15] it was 0.869 µM (≈ 2.54 µg/mL).
Turning to `CC[C@H](C)[C@H](NC(=O)[C@H](C)NC(=O)[C@H](CCCCN)NC(=O)[C@H](CC(C)C)NC(=O)[C@H](C)NC(=O)[C@@H](NC(=O)[C@H](Cc1cnc[nH]1)NC(=O)[C@H](CC(C)C)NC(=O)[C@@H](NC(=O)[C@@H](NC(=O)[C@H](CCCCN)NC(=O)[C@@H](NC(=O)[C@H](C)NC(=O)[C@@H](NC(=O)[C@H](CCCCN)NC(=O)[C@H](Cc1ccccc1)NC(=O)[C@@H](NC(=O)[C@H](CCCCN)NC(=O)[C@H](CC(C)C)NC(=O)[C@H](Cc1ccccc1)NC(=O)[C@H](CO)NC(=O)[C@H](CCCCN)NC(=O)[C@H](Cc1c[nH]c2ccccc12)NC(=O)[C@H](CCCCN)NC(C)=O)[C@@H](C)O)C(C)C)C(C)C)[C@@H](C)O)C(C)C)[C@@H](C)O)C(=O)N[C@@H](CO)C(=O)N[C@@H](CO)C(N)=O` [KWKSFLKTFKVAVKTVLHTALKAISS], the MIC in assay [20] was 3.44 µM (≈ 10.2 µg/mL); in [21], 5.46 µM (≈ 16.2 µg/mL); in assay [22], 6.89 µM (≈ 20.5 µg/mL); in assay [23] it was 2.73 µM (≈ 8.11 µg/mL); in [24] it was 6.89 µM (≈ 20.5 µg/mL); in assay [25], 10.9 µM (≈ 32.4 µg/mL). For the same molecule, the MIC in assay [26] was 1.71 µM (≈ 5.07 µg/mL); in assay [27], 1.36 µM (≈ 4.06 µg/mL); in [28], 0.853 µM (≈ 2.54 µg/mL); in [29], 0.443 µM (≈ 1.32 µg/mL); in [30], 4.33 µM (≈ 12.9 µg/mL); in assay [15], 2.18 µM (≈ 6.49 µg/mL).
Regarding `CC(C)C[C@H](NC(=O)CNC(=O)[C@H](Cc1cnc[nH]1)NC(=O)[C@H](Cc1cnc[nH]1)NC(=O)[C@H](CC(C)C)NC(=O)[C@H](CC(C)C)NC(=O)[C@H](C)NC(=O)[C@H](CC(N)=O)NC(=O)[C@H](CC(C)C)NC(=O)[C@@H](N)Cc1c[nH]c2ccccc12)C(=O)N[C@@H](CC(N)=O)C(=O)N[C@@H](CS)C(=O)N[C@@H](C)C(N)=O` [WLNALLHHGLNCA], the MIC in [31] and in assay [32] was at least 43.8 µM throughout.

Source of the values: DBAASP.
